US20090111781A1, “Use of Cymipristone Type Compounds in Aids Treatment” (SHANGHAI THREE-ALLIANCE BIOTECHNOLOGIES CO., LTD., priority 2005, published 2009)

Key:
androgen receptor (AR) = target: T1, androgen receptor (AR) (Homo sapiens, UniProt P10275); assay: Binding activity on human nuclear receptor AR; settings: mean ± SD, n = 4
T1 sequence (P10275 1-920): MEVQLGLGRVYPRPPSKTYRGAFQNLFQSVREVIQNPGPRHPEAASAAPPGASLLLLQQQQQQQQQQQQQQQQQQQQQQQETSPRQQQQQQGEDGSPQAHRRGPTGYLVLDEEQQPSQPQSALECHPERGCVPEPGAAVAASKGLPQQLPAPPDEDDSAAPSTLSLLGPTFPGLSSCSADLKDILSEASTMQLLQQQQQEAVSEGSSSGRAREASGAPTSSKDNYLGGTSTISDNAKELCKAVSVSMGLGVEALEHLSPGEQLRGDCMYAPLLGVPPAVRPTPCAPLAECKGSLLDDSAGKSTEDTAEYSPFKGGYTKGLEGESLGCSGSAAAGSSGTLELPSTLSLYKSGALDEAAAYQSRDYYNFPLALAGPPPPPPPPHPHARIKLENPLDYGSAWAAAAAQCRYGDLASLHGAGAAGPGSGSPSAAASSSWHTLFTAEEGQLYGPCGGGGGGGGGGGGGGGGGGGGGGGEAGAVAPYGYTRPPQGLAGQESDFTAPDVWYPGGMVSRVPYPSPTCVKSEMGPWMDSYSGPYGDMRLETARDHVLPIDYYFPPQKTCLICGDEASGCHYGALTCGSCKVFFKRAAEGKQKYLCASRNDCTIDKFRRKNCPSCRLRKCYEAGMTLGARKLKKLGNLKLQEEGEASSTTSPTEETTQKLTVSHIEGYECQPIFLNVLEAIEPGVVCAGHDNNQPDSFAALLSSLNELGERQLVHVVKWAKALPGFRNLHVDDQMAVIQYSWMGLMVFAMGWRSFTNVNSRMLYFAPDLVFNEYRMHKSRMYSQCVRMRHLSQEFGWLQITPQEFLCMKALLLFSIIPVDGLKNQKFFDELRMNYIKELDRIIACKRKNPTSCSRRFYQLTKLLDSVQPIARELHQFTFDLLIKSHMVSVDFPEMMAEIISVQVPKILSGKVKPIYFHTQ
Description: Buffer solution is composed of 25 mM NaPO4, 20 mM NaMoO4, 10 mM KF and 10% glycerol (pH=7.3) and stored under 4° C. Stock solution is prepared with CHAPS and DTT and stored under −20° C. […] Add 2.5 μl/hole into 96-pore plate. Take out appropriate amount of buffer solution reserve into solution to make the final concentration of CHAPS and DDT to become 0.25 mM and 2 mM respectively. Add protease inhibitors (aprotinin and leupeptin) to make its final concentration to become 1 μg/μl, and place in an ice bath. After adding human nuclear receptor GR (1:8), PR (1:100), ER (1:2000), AR (1:200) and MR (1:40) into the reaction system respectively, adequately mix suitable quantity of [^3H]-dexamethasone, [^3H]-progesterone, [^3H]-estradiol and [^3H]-DHT (from Amersham), rapidly add into 96-pore plate (100 μl/pore) and incubate overnight under 4° C. On the next day, add 25 μl of hydroxyapatite suspension into each pore and mix with shaking. After incubating for 10 min, separate by centrifuge for 3 min at 2500 rpm. The precipitate is washed with 100 μl of buffer solution and separated by centrifuge twice. Add 150 μl of scintillation solution (from Perkin Elmer) into each pore, mix with shaking and count by MicroBeta counter.

thymus gland cells = assay: Anti-glucocorticoid activity test, [3H]-TdR incorporation in rat thymus gland cells; format: cell-based; settings: for Antagonism against dexamethasone (incorporation rate of [3H]-TdR): n = 4
Description: Clean female SD rats, body weight 200-250 g, are fed with certain quantity of food and freely drink water. The temperature is controlled at about 24° C. and an illumination cycle are for 11 hours by day and 13 hours at night. All animals are observed for 1 week before experiment. Rats are anesthetized with ethyl ether. Incisions are made on two sides below costal arch of ribs on dorsal position of rats to extirpate adrenal glands. The rats are fed with physiological saline after operation. On the seventh day, animals are acutely executed. Take out thymus gland to place in to HBSS buffer solution, wash twice, remove connective tissue, cut the tissue with scissors, lightly grind with homogenizer, filter with three layers of gauze, and centrifuge the filtrate for 5 min (500 rpm). Wash the precipitated cells twice with HBSS, re-suspend the cells in RPMI1640 culture medium for cell count and cell survival rate determination, and adjust cell concentration to 1×10^7/ml. Determination of anti-glucocorticoid activity: Add tested compound into culture medium, reaction concentration 6×10^−[…], and place in 37° C. incubator for 3 hours. Add thymus gland cells to make cell concentration to become 10^7/ml and incubate at 37° C. for 3 hours. Add 1 μCi of label substance, mix, and incubate for 1 hour. Add 100 μl of ice cold 5% trichloroacetic acid to end the reaction. Place the test tube on ice and wash twice with 2 ml of ice cold 5% trichloroacetic acid and centrifuge twice, 500 rpm×5 min, Add 0.5 ml of 1N NaOH to dissolve the precipitated cells, pipet out the liquid, dry the residue with cotton stick, place into same scintillation bottle, and determine the radioactivity by liquid scintillation counter.
Calculate the incorporation rate of [^3H]-TdR:
In which: T=[^3H]-TdR count without presence of compound, Td=count with presence of compound, and NSB=non-specific adsorption.
Inhibition rate=100%−incorporation rate

[1] = Rattus norvegicus, read-out: Residual inhibition rate of dexamethasone

**Q.** For `CC#C[C@]1(O)CC[C@H]2[C@@H]3CCC4=CC(=O)CCC4=C3[C@@H](c3ccc(N(C)C4CCCCC4)cc3)C[C@@]21C` [Cymipristone, 11β-[4-(N-methyl-N-cyclohexylamino)phenyl]-17α-(1-propynyl)-17β-hydroxyl-4,9-estradiene-3-one], which IC50 (androgen receptor (AR)) is on record?
**A.** 69.6 ± 15.4 nM

**Q.** And the “Anti-glucocorticoid activity (in words)” value (thymus gland cells)?
**A.** Result shows that cymipristone has anti-glucocorticoid activity.

**Q.** And the activity at 0.06 µM (thymus gland cells; [1])?
**A.** 35.2 ± 2.4%

**Q.** And the activity at 0.2 µM (thymus gland cells; [1])?
**A.** 57.7 ± 3.5%

**Q.** And the activity at 0.6 µM (thymus gland cells; [1])?
**A.** 42.2 ± 1.9%

**Q.** What about the activity at 2 µM (thymus gland cells; [1]) of the same molecule?
**A.** 64.1 ± 5.6%

**Q.** And the “Antagonism against dexamethasone (incorporation rate of [3H]-TdR)” value (shortened to “Antagonism against dexamethasone”) (thymus gland cells; cymipristone 2 × 10^−6 mol/L with dexamethasone 6×10^−8 mol/L)?
**A.** 63.6 ± 5.1%

**Q.** And the “Antagonism against dexamethasone” value (thymus gland cells; cymipristone 2 × 10^−7 mol/L with dexamethasone 6×10^−8 mol/L)?
**A.** 67.2 ± 2.9%

**Q.** And the “Antagonism against dexamethasone” value (thymus gland cells; cymipristone 6 × 10^−7 mol/L with dexamethasone 6×10^−8 mol/L)?
**A.** 76.0 ± 3.8%

**Q.** And the “Antagonism against dexamethasone” value (thymus gland cells; cymipristone 6 × 10^−8 mol/L with dexamethasone 6×10^−8 mol/L)?
**A.** 80.0 ± 4.3%
